Laboratory results as given in ChEMBL document CHEMBL1153480, “Study on the potential anti-cancer activity of phosphonium and ammonium-based ionic liquids” (2009).

Assays:
Assay type in all cases: functional
[1] = test system: NCI/ADR-RES; assay: cells; conditions: Homo sapiens
Description: Growth inhibition of human NCI/ADR-RES cells assessed as drug level required for 50% reduction in net protein increase by SRB assay relative to control

[2] = test system: OVCAR-5; assay: Cytotoxicity against human OVCAR5 cells by SRB assay; conditions: read-out: LC50 (the source's name)
[3] = test system: TK-10; assay: Cytotoxicity against human TK10 cells by SRB assay; conditions: read-out: LC50 (the source's name)
[4] = test system: NCI-H322M; assay: Cytotoxicity against human NCI-H322M cells by SRB assay; conditions: read-out: LC50 (the source's name)
[5] = test system: A498; assay: Cytotoxicity against human A498 cells by SRB assay; conditions: read-out: LC50 (the source's name)
[6] = test system: SN12C; assay: Cytotoxicity against human SN12C cells by SRB assay; conditions: read-out: LC50 (the source's name)
[7] = test system: SK-MEL-28; assay: Cytotoxicity against human SK-MEL-28 cells by SRB assay; conditions: read-out: LC50 (the source's name)
[8] = test system: M14; assay: cells; conditions: Homo sapiens
Description: Growth inhibition of human M14 cells assessed as cell growth at 10 uM by SRB assay

[9] = test system: SW-620; assay: cells; conditions: Homo sapiens
Description: Growth inhibition of human SW620 cells assessed as cell growth at 10 uM by SRB assay

[10] = test system: MDA-MB-231; assay: Cytotoxicity against human MDA-MB-231 cells by SRB assay; conditions: read-out: LC50 (the source's name)
[11] = test system: UACC-62; assay: Cytotoxicity against human UACC62 cells by SRB assay; conditions: read-out: LC50 (the source's name)
[12] = test system: EKVX; assay: cells; conditions: Homo sapiens
Description: Growth inhibition of human EKVX cells assessed as drug level required for 50% reduction in net protein increase by SRB assay relative to control

[13] = test system: HCT-15; assay: Cytotoxicity against human HCT15 cells by SRB assay; conditions: read-out: LC50 (the source's name)
[14] = test system: OVCAR-3; assay: cells; conditions: Homo sapiens
Description: Growth inhibition of human OVCAR-3 cells assessed as cell growth at 10 uM by SRB assay

[15] = test system: M14; assay: cells; conditions: Homo sapiens; remark: listed apart in the source
Description: Growth inhibition of human M14 cells assessed as drug level required for 50% reduction in net protein increase by SRB assay relative to control

[16] = test system: CCRF-CEM; assay: Cytotoxicity against human CCRF-CEM cells by SRB assay; conditions: read-out: LC50 (the source's name)
[17] = test system: SF-295; assay: cells; conditions: Homo sapiens
Description: Growth inhibition of human SF295 cells assessed as drug level required for 50% reduction in net protein increase by SRB assay relative to control

[18] = test system: SF-539; assay: Cytotoxicity against human SF539 cells by SRB assay; conditions: read-out: LC50 (the source's name)
[19] = test system: SK-MEL-5; assay: Cytotoxicity against human SK-MEL-5 cells by SRB assay; conditions: read-out: LC50 (the source's name)
[20] = test system: NCI-H226; assay: Cytotoxicity against human NCI-H226 cells by SRB assay; conditions: read-out: LC50 (the source's name)
[21] = test system: LOX IMVI; assay: cells; conditions: Homo sapiens
Description: Growth inhibition of human LOXIMVI cells assessed as cell growth at 10 uM by SRB assay

[22] = test system: ACHN; assay: Cytotoxicity against human ACHN cells by SRB assay; conditions: read-out: LC50 (the source's name)
[23] = test system: SK-MEL-5; assay: cells; conditions: Homo sapiens
Description: Growth inhibition of human SK-MEL-5 cells assessed as drug level required for 50% reduction in net protein increase by SRB assay relative to control

[24] = test system: EKVX; assay: Cytotoxicity against human EKVX cells by SRB assay; conditions: read-out: LC50 (the source's name)
[25] = test system: Malme-3M; assay: cells; conditions: Homo sapiens
Description: Growth inhibition of human MALME-3M cells assessed as cell growth at 10 uM by SRB assay

[26] = test system: T47D; assay: Cytotoxicity against human T47D cells by SRB assay; conditions: read-out: LC50 (the source's name)
[27] = test system: UACC-257; assay: Cytotoxicity against human UACC257 cells by SRB assay; conditions: read-out: LC50 (the source's name)
[28] = test system: HL-60(TB); assay: Cytotoxicity against human HL-60(TB) cells by SRB assay; conditions: read-out: LC50 (the source's name)
[29] = test system: U-251; assay: Cytotoxicity against human U251 cells by SRB assay; conditions: read-out: LC50 (the source's name)
[30] = test system: NCI/ADR-RES; assay: Cytotoxicity against human NCI/ADR-RES cells by SRB assay; conditions: read-out: LC50 (the source's name)
[31] = test system: RPMI-8226; assay: Cytotoxicity against human RPMI8226 cells by SRB assay; conditions: read-out: LC50 (the source's name)
[32] = test system: LOX IMVI; assay: Cytotoxicity against human LOXIMVI cells by SRB assay; conditions: read-out: LC50 (the source's name)
[33] = test system: OVCAR-5; assay: cells; conditions: Homo sapiens
Description: Growth inhibition of human OVCAR5 cells assessed as drug level required for 50% reduction in net protein increase by SRB assay relative to control

[34] = test system: HOP-92; assay: Cytotoxicity against human HOP92 cells by SRB assay; conditions: read-out: LC50 (the source's name)
[35] = test system: IGROV-1; assay: cells; conditions: Homo sapiens
Description: Growth inhibition of human IGROV1 cells assessed as cell growth at 10 uM by SRB assay

[36] = test system: BT-549; assay: cells; conditions: Homo sapiens
Description: Growth inhibition of human BT549 cells assessed as cell growth at 10 uM by SRB assay

Row | Compound | GI50 [1] | CC50 [2] | CC50 [3] | CC50 [4] | CC50 [5] | CC50 [6] | CC50 [7] | growth at 10 µM [8] | growth at 10 µM [9] | CC50 [10] | CC50 [11] | GI50 [12] | growth at 10 µM [14] | GI50 [15] | GI50 [17] | growth at 10 µM [21] | GI50 [23] | growth at 10 µM [25] | CC50 [26] | GI50 [33] | further results
1 | CCCCCCCC[N+](C)(CCCCCCCC)CCCCCCCC.O=S(=O)([N-]S(=O)(=O)C(F)(F)F)C(F)(F)F | 1.68 µM | 8.17 µM | 4.86 µM | 6.12 µM | 6.36 µM | 4.06 µM | 7.18 µM | -91.7% | -100% | 3.63 µM | 4.1 µM | 0.215 µM | -100% | 0.453 µM | 0.333 µM | -74.7% | 0.177 µM | -94.1% | > 100 µM | 1.24 µM | CC50 [13]: 5.23 µM; CC50 [16]: 2.44 µM; CC50 [18]: 4.19 µM; CC50 [19]: 0.677 µM; CC50 [20]: 4.41 µM; CC50 [22]: 4.52 µM; CC50 [24]: 4.31 µM; CC50 [27]: 6.16 µM; CC50 [28]: 1.23 µM; CC50 [29]: 4.32 µM; CC50 [30]: 8.13 µM; CC50 [31]: 0.951 µM; CC50 [32]: 1.08 µM; CC50 [34]: 4.47 µM
2 | CCCCCCCCCCCCCCCCCCPCCCCCCCCCCCCCC (stereo not drawn) [MONO(OCTADECYL(TETRADECYL)PHOSPHONIUM) MONO(HEXAFLUOROPHOSPHATE(V)) MONO(TETRAFLUOROBORATE)] | 0.947 µM | – | – | – | – | – | > 100 µM | -67.2% | -43.8% | – | – | 0.206 µM | -51% | 0.087 µM | 0.251 µM | 0.43% | 0.074 µM | -61.6% | > 100 µM | 0.337 µM | growth at 10 µM [35]: -19.6%; growth at 10 µM [36]: -83.5%
3 | CCCCCCCCCCCCCCCCCCPCCCCCCCCCCCCCC.O=S(=O)(NS(=O)(=O)C(F)(F)F)C(F)(F)F (stereo not drawn) | 0.73 µM | > 100 µM | > 100 µM | > 100 µM | > 100 µM | 4.44 µM | 6.59 µM | -83.9% | -86.3% | > 100 µM | > 100 µM | 0.123 µM | -100% | 0.052 µM | 0.205 µM | -68.5% | 0.079 µM | -36.5% | > 100 µM | 0.318 µM | CC50 [13]: > 100 µM; CC50 [16]: 8.46 µM; CC50 [18]: > 100 µM; CC50 [19]: 0.829 µM; CC50 [20]: > 100 µM; CC50 [22]: > 100 µM; CC50 [24]: > 100 µM; CC50 [27]: > 100 µM; CC50 [28]: 0.711 µM; CC50 [29]: 5.62 µM; CC50 [30]: > 100 µM; CC50 [31]: 0.098 µM; CC50 [32]: 0.592 µM; CC50 [34]: > 100 µM
